Measurements as given in patent publication US9453053B2, “Short peptides for enhancing muscle function” (UNIVERSITAT HEIDELBERG, priority 2010, dated 2016).
“Also recorded” adds a separate entry of the source. Ends that are not written are not given here.

Legend:
[1] = tested on: isolated rat ventricular cardiomyocytes; format: cell-based; settings: for effect on calcium transient amplitudes: FIG. 25, field-stimulated (1 Hz) isolated rat ventricular cardiomyocytes; for increase in the calcium transient amplitude over control cells, functional equivalence compared to S100A1ct6/11: FIG. 26, 2 Hz, peptides added 30 min before assessment
[2] = tested on: adult intact cardiomyocytes or skeletal muscle fibers; assay: Calcium homeostasis in adult intact cardiomyocytes or skeletal muscle fibers; format: cell-based; settings: adult intact (non-permeabilized) cardiomyocytes or skeletal muscle fibers
RyR2 = target: T1, RyR2 (Oryctolagus cuniculus, UniProt P30957); assay: Ca2+-spark frequency in permeabilized cardiomyocytes; format: cell-based, rabbit
T1 construct: Adult ventricular rabbit cardiomyocytes were isolated from four different animals; endogenous in cells; host or cells: adult ventricular rabbit cardiomyocytes, permeabilized with beta-escin
T1 sequence (P30957 whole entry): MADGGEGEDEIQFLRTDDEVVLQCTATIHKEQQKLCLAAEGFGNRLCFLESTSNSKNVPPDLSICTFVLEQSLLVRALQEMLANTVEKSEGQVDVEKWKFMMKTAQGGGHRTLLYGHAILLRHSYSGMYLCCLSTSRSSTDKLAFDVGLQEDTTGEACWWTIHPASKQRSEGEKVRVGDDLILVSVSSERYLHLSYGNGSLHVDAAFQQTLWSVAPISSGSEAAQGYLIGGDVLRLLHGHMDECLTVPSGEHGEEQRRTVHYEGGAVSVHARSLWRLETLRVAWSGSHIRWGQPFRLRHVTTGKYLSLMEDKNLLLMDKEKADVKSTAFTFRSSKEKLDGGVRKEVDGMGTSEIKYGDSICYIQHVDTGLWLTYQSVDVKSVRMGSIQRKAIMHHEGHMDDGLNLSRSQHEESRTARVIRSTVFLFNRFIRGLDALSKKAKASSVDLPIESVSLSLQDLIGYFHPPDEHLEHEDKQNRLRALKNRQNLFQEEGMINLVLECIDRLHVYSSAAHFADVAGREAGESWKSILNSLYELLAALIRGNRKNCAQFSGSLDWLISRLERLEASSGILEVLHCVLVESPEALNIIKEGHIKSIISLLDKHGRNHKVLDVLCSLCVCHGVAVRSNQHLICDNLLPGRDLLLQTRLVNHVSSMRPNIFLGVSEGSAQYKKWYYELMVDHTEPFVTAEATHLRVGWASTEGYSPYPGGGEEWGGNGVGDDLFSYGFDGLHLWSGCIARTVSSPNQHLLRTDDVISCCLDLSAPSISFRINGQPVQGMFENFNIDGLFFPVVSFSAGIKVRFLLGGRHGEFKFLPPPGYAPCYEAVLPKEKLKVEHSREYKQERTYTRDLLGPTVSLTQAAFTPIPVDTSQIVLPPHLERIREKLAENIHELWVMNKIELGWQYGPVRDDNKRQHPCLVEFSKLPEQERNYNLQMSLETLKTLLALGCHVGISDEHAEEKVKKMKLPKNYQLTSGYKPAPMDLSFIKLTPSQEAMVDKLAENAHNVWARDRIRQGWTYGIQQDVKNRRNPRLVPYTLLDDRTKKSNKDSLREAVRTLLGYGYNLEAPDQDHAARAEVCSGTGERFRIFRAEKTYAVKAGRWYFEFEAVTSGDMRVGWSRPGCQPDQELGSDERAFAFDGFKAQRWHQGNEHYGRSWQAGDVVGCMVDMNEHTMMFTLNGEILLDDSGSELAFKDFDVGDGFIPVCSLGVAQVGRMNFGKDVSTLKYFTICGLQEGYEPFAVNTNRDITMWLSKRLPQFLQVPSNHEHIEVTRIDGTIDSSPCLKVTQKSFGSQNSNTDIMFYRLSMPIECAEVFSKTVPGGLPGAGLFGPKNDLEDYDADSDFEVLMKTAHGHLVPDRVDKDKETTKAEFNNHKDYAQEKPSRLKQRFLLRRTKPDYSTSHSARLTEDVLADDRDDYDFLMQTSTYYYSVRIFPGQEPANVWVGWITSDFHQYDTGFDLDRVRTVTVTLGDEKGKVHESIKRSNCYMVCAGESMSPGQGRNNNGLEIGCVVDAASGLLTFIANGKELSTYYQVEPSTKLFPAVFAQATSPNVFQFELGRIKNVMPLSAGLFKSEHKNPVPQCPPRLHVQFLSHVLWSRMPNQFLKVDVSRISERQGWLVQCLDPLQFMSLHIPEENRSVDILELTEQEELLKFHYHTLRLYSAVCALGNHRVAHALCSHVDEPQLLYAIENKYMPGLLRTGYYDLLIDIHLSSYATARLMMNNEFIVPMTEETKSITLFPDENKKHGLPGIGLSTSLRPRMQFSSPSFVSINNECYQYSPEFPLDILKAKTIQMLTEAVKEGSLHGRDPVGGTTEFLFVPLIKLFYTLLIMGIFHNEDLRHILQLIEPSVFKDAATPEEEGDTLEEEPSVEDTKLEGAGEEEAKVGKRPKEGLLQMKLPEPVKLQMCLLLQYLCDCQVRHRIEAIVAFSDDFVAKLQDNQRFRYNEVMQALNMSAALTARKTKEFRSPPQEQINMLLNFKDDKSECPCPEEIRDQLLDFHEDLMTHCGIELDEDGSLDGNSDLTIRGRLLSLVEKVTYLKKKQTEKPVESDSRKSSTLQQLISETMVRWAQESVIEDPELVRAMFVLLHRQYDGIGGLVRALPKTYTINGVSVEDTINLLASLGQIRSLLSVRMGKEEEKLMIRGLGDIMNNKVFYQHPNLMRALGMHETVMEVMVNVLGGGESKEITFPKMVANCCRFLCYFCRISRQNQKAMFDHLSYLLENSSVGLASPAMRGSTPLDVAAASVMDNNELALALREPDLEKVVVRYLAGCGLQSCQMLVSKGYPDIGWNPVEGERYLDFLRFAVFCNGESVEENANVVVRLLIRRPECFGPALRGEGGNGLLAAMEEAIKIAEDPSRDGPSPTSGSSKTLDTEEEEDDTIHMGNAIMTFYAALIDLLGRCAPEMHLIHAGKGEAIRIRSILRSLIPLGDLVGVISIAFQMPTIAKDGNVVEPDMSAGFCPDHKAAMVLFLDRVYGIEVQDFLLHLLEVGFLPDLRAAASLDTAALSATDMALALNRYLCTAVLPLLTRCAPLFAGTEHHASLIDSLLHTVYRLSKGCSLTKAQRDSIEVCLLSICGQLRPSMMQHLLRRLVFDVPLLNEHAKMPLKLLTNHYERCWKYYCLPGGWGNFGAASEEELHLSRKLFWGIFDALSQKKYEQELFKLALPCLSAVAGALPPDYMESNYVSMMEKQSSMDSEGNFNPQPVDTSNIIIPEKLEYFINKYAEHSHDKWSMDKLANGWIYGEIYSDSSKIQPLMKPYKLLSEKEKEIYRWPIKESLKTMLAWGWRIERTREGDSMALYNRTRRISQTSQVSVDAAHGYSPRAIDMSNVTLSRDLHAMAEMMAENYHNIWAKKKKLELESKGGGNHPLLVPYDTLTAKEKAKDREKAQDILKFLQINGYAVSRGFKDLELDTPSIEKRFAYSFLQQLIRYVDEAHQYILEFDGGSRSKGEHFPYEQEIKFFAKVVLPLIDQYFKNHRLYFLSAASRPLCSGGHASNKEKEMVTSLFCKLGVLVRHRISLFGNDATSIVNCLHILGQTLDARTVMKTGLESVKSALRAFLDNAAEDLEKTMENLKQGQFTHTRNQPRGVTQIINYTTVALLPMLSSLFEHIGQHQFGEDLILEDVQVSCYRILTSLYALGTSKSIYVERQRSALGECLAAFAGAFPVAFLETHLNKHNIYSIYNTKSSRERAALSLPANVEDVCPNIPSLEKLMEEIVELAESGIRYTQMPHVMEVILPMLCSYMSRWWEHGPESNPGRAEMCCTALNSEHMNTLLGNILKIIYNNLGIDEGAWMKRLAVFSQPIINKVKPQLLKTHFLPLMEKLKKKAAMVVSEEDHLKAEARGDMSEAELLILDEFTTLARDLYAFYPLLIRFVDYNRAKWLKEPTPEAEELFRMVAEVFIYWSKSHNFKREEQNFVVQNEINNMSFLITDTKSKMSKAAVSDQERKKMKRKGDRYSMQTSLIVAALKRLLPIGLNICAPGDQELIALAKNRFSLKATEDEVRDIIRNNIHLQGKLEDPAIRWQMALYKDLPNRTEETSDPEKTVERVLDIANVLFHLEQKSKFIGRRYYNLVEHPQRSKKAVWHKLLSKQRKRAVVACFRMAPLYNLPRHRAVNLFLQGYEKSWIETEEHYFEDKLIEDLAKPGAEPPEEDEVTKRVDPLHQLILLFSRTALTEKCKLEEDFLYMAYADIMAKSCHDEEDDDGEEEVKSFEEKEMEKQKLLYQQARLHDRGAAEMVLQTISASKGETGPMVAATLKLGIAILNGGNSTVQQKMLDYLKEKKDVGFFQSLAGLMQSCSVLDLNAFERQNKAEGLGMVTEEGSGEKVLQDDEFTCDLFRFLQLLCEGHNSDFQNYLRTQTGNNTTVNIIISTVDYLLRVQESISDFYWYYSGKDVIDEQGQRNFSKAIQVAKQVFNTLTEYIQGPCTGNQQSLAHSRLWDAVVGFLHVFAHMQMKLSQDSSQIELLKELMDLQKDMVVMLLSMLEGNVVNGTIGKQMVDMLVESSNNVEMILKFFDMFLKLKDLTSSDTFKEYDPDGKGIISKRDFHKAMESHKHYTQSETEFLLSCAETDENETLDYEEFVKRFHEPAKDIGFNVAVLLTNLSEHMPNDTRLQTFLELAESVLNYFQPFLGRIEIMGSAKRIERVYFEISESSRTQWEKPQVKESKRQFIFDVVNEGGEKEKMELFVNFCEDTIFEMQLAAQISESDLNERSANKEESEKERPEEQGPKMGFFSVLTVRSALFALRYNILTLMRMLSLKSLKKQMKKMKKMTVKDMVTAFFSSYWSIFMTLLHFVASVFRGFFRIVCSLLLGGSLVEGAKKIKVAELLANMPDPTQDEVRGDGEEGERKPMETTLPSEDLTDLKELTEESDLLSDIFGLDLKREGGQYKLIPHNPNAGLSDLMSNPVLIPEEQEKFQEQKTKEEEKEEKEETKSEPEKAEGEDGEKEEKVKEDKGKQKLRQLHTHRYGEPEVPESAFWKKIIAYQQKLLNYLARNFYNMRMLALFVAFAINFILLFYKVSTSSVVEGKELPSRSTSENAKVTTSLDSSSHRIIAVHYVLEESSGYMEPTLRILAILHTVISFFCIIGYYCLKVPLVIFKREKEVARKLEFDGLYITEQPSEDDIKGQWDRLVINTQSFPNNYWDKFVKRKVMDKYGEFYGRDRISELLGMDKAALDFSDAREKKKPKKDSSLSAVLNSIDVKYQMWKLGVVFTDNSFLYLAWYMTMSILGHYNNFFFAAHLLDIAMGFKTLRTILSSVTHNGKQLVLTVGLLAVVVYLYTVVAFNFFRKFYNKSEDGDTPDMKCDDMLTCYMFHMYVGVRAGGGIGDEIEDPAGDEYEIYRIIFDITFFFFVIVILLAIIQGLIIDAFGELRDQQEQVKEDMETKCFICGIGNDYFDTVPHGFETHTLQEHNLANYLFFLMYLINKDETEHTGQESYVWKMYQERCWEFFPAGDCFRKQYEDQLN
Protocol: Adult ventricular rabbit cardiomyocytes were isolated from four different animals as previously described (Loughrey C. M. et al., 2004, J. Physiol. 556:919-934) and permeabilized using β-escin (0.1 mg/ml). The permeabilized cells were incubated for 1 minute with rhodamine-labeled human S100A1 protein (0.1 μM) or FITC-labeled S100A1 C-terminal 20-mer peptide (0.1 μM) fused to a hydrophilic element (i.e. amino acids 75 to 94 of human S100A1 fused to the hydrophilic element D-K-D-D-P-P (SEQ ID NO: 17)). Cells were monitored using a Bio-Rad 2000 laser scanning confocal microscope (LSCM). A striated staining pattern can be observed that resembles the ryanodine staining pattern (FIG. 4).
Furthermore, Ca^2+-spark frequency has been assessed in the permeabilized cells treated with S100A1 protein or the S100A1 C-terminal 20-mer peptide fused to a hydrophilic element and it was shown that both, the full-length protein as well as the C-terminal fragment, decrease calcium spark frequency in permeabilized cardiomyocytes (FIGS. 5 and 6). […] Fluo-3 free acid (10 μM) present in the perfusing solution was excited at 488 nm (Kr-laser) and measured at >515 nm applying epifluorescence optics of an inverted microscope with a ×60-1.2 NA water-immersion objective lens. Fluorescence was acquired in line scan mode at 2 ms line^−1; pixel dimension was 0.3 μm (512 pixels scan^−1; zoom=1.4). […]

[3] = tested on: permeabilized EDL murine skeletal muscle fibers; assay: Isometric twitch force in permeabilized skeletal muscle fibers; format: cell-based, mouse
Protocol: Muscle Fiber Preparation and Experimental Solutions. All of the animals were handled according to the guidelines of the animal care committee of the University of Heidelberg. Male BALB/c mice (3-6-months-old) were sacrificed by an overdose of carbon dioxide, and muscle fiber preparation was carried out as previously described (Fink R. H. and Stephenson D. G., 1987, Pflugers Arch. Eur. J. Physiol. 409:374-380; Makabe M. et al., 1996, Pflugers Arch. Eur. J. Physiol. 432: 717-726). Either EDL (M. ext. dig. longum) or Soleus was isolated, and a small fiber bundle containing two to four single fibers (between 80 and 150 μm in diameter and 3-4-mm-long) was dissected in paraffin oil. […] The free ion concentrations were calculated with the computer program REACT (version 2.0) from G. L. Smith (Glasgow, Scotland). […]
It was shown that both, the full-length S100A1 protein as well as the C-terminal fragment, has a potency to enhance isometric twitch force in permeabilized murine skeletal muscle fibers (FIG. 7). […] Maximum force was measured in the high activating solution at pCa 4.28 and 5 mM caffeine. […] Several control transients were recorded before the fiber was exposed to the S100A1 protein or the S100A1 peptide mixture (N/H/C) or the C-terminal 20-mer alone, and the experiment was repeated as outlined above. […]

| Substance | effect on calcium transient amplitudes [1] | increase in the calcium transient amplitude over control cells, functional equivalence compared to S100A1ct6/11 [1] | also measured |
| --- | --- | --- | --- |
| D-K-D-D-P-P-L-V-A-A-L-T-V-A (DKDDPPLVAALTVA) [N-78-85-C] | abolishes the inotropic effect |  |  |
| D-K-D-D-P-P-V-L-V-A-A-L-T-V-A (DKDDPPVLVAALTVA; Functional peptide (Fig. 26)) [77-85] | abolishes the inotropic effect | partial functional equivalence |  |
| S100A1 protein: native human S100A1 protein, 94 amino acids, SEQ ID NO: 38; recombinant, rhodamine-labeled for imaging |  |  | calcium homeostasis [2]: does not alter; diastolic calcium spark frequency and RyR2 activity (RyR2): decreases; isometric twitch force [3]: enhances; also recorded: equivalent biological potency to enhance isometric force |
| D-K-D-D-P-P-V-V-L-V-A-A-L (DKDDPPVVLVAAL; Functional peptide (Fig. 26)) [76-82] |  | partial functional equivalence |  |
| DKDDPPYVVLVAALTVA [S100A1ct6/11, D-K-D-D-P-P-Y-V-V-L-V-A-A-L-T-V-A (SEQ ID NO: 42)] |  |  | EC50 [1]: 87 ± 6 nM |
| D-K-D-D-P-P-V-V-L-V-A-A-L-T (DKDDPPVVLVAALT; Functional peptide (Fig. 26)) [76-83] |  | partial functional equivalence |  |
| D-K-D-D-P-P (DKDDPP; hydrophilic motif) [hydrophobic element, 6-mer hydrophilic motif tested alone as control, reference compound] | do not exhibit the inotropic effect |  |  |
| YVVLVAALTVACNNFFWENS (SEQ ID NO: 39) (YVVLVAALTVACNNFFWENS; amino acids 75 to 94 of human S100A1) [20-mer S100A1 C-terminal peptide, amino acids 75-94 of human S100A1, reference compound] |  |  | calcium homeostasis [2]: does not alter; diastolic calcium spark frequency and RyR2 activity (RyR2): decreases; isometric twitch force [3]: enhances; also recorded: equivalent biological potency to enhance isometric force |
| D-K-D-D-P-P-V-A-A-L-T-V-A (DKDDPPVAALTVA; Functional peptide (Fig. 26)) [79-85] | abolishes the inotropic effect | partial functional equivalence |  |
| D-K-D-D-P-P-V-V-L-V-A-A-L-T-V (DKDDPPVVLVAALTV; Functional peptide (Fig. 26)) [76-84] |  | full functional equivalence |  |
